The source made the active and inactive calls. The rule behind the calls is not given here.
How the values were obtained:
[1] = target: Lysine-specific histone demethylase 1A (Homo sapiens, UniProt O60341)
Description: Inhibition of recombinant human LSD1 (157 to 852 residues) expressed in Escherichia coli BL21(DE3) using H3K4me2 as substrate preincubated for 1 hr followed by substrate addition by fluorescence assay

MGC-803 [2] = assay: cells; settings: Homo sapiens, MGC-803, read-out: GI
Description: Cytotoxicity against human MGC803 cells assessed as growth inhibition at 10 uM by MTT assay relative to control

ECa-109 cell line [3] = assay: cells; settings: Homo sapiens, ECa-109, read-out: GI
Description: Cytotoxicity against human EC109 cells assessed as growth inhibition at 10 uM by MTT assay relative to control

A549 [4] = assay: cells; settings: Homo sapiens, A549, read-out: GI
Description: Cytotoxicity against human A549 cells assessed as growth inhibition at 10 uM by MTT assay relative to control

PC-9 [5] = assay: cells; settings: Homo sapiens, PC-9, read-out: GI
Description: Cytotoxicity against human PC9 cells assessed as growth inhibition at 10 uM by MTT assay relative to control

PC-9 [6] = assay: Potency index, ratio of 5-fluorouracil IC50 to compound IC50 for human PC9 cells; type: functional
MGC-803 [7] = assay: cells; settings: Homo sapiens
Description: Cytotoxicity against human MGC803 cells assessed as growth inhibition by MTT assay

ECa-109 cell line [8] = assay: cells; settings: Homo sapiens
Description: Cytotoxicity against human EC109 cells assessed as growth inhibition by MTT assay

A549 [9] = assay: cells; settings: Homo sapiens
Description: Cytotoxicity against human A549 cells assessed as growth inhibition by MTT assay

PC-9 [10] = assay: cells; settings: Homo sapiens
Description: Cytotoxicity against human PC9 cells assessed as growth inhibition by MTT assay

MGC-803 [11] = assay: Anti-migratory activity against human MGC803 cells at 10 uM after 24 hrs by Hoechst 33258 staining based transwell assay relative to control; type: functional; settings: MGC-803, 24 h
MGC-803 [12] = assay: Anti-migratory activity against human MGC803 cells after 24 hrs by Hoechst 33258 staining based transwell assay; type: functional, cell-based
MGC-803 [13] = assay: Effect on E-cadherin expression in human MGC803 cells at 5 to 10 uM after 24 hrs by Western blot method; type: functional, cell-based
MGC-803 [14] = assay: Effect on N-cadherin expression in human MGC803 cells at 5 to 10 uM after 24 hrs by Western blot method; type: functional, cell-based
PC-9 [15] = assay: Anti-migratory activity against human PC9 cells after 24 hrs by Hoechst 33258 staining based transwell assay; type: functional, cell-based
PC-9 [16] = assay: Increase in E-cadherin expression in human PC9 cells at 5 to 10 uM after 24 hrs by Western blot method; type: functional, cell-based
PC-9 [17] = assay: Decrease in N-cadherin expression in human PC9 cells at 5 to 10 uM after 24 hrs by Western blot method; type: functional, cell-based

| SMILES | IC50 [1] [µM] | inhibition of growth at 10 µM (MGC-803 [2]) [%] | inhibition of growth at 10 µM (ECa-109 cell line [3]) [%] | inhibition of growth at 10 µM (A549 [4]) [%] | inhibition of growth at 10 µM (PC-9 [5]) [%] | Ratio IC50 (PC-9 [6]) | IC50 (MGC-803 [7]) [µM] | IC50 (ECa-109 cell line [8]) [µM] | IC50 (A549 [9]) [µM] | IC50 (PC-9 [10]) [µM] | inhibition at 10 µM (MGC-803 [11]) [%] | Activity (MGC-803 [12]) | Activity (MGC-803 [13]) | Activity (MGC-803 [14]) | Activity (PC-9 [15]) | Activity (PC-9 [16]) | Activity (PC-9 [17]) |
| --- | --- | --- | --- | --- | --- | --- | --- | --- | --- | --- | --- | --- | --- | --- | --- | --- | --- |
| COc1cc(Nc2cc(C)nc3nc(SCc4ccccc4)nn23)cc(OC)c1OC | > 10 | 32.8 | 41.6 | 37.9 | 13.5 | – | – | – | – | – | – | – | – | – | – | – | – |
| COc1cc(/C=C/C(=O)c2ccc(Nc3cc(C)nc4nc(SCc5nc6ccccc6[nH]5)nn34)cc2)cc(OC)c1OC | > 10 | 81.3 | 76.4 | 71.6 | 93.1 | 4 | 2.46 | 3.23 | 8.79 | 0.57 | – | – | – | – | – | – | – |
| Cc1cc(N2CCOCC2)n2nc(SCc3ccccc3)nc2n1 | > 10 | 31 | 10.6 | 45.4 | 27.3 | – | – | – | – | – | – | – | – | – | – | – | – |
| Cc1cc(Nc2ccc(C#N)cc2)n2nc(SCc3nc4ccccc4[nH]3)nc2n1 | > 10 | 19.3 | 26.3 | 52.3 | 41.9 | – | – | – | 13.9 | – | – | – | – | – | – | – | – |
| Cc1ccc(Nc2cc(C)nc3nc(SCc4ccccc4)nn23)cc1 | > 10 | 26 | 44.7 | 33.7 | 30.2 | – | – | – | – | – | – | – | – | – | – | – | – |
| Cc1cc(NNC(=O)c2cnccn2)n2nc(SCc3ccccc3)nc2n1 | 1.19 | 35.3 | 23.3 | 40.9 | 63.2 | – | – | – | – | 12.7 | – | – | – | – | – | – | – |
| Cc1cc(N2CCNCC2)n2nc(SCc3ccccc3)nc2n1 | > 10 | 32.4 | 23.9 | 41.4 | 29.3 | – | – | – | – | – | – | – | – | – | – | – | – |
| Cc1cc(N2CCN(CCO)CC2)n2nc(SCc3ccccc3)nc2n1 | > 10 | 23.8 | 5.9 | 42.1 | 14.9 | – | – | – | – | – | – | – | – | – | – | – | – |
| Cc1cc(Nc2ccc(Br)cc2)n2nc(SCc3nc4ccccc4[nH]3)nc2n1 | > 10 | 36.7 | 43.8 | 35.2 | 36.4 | – | – | – | – | – | – | – | – | – | – | – | – |
| Cc1cc(Nc2ccc(C(=O)/C=C/c3cccs3)cc2)n2nc(SCc3nc4ccccc4[nH]3)nc2n1 | > 10 | 29.6 | 38.3 | 51.1 | 40.4 | – | 7.88 | 10.6 | 9.9 | 11 | – | – | – | – | – | – | – |
| Cc1cc(NCCCn2ccnc2)n2nc(SCc3ccccc3)nc2n1 | > 10 | 26.2 | 12.8 | 50.2 | 47.7 | – | – | – | 16.1 | 12.3 | – | – | – | – | – | – | – |
| Cc1cc(NNC(=O)c2cnccn2)n2nc(SCc3nc4ccccc4[nH]3)nc2n1 | 0.557 | 8.6 | 35.5 | 65.2 | 52.5 | – | – | – | 10.3 | 12.3 | – | – | – | – | – | – | – |
| Cc1cc(NNC(N)=S)n2nc(SCc3ccccc3)nc2n1 | 0.154 | 2.1 | 14.2 | 25.6 | 30.7 | – | – | – | – | – | 21 | Dose-dependent effect | inactive | inactive | Dose-dependent effect | Active | Active |
| Cc1cc(NCCCO)n2nc(SCc3ccccc3)nc2n1 | > 10 | 33.3 | 6.3 | 53.7 | 51.4 | – | – | – | 8.85 | 10.7 | – | – | – | – | – | – | – |
| Cc1cc(NCCc2c[nH]c3ccccc23)n2nc(SCc3ccccc3)nc2n1 | > 10 | 34.2 | 7 | 43.9 | 24 | – | – | – | – | – | – | – | – | – | – | – | – |
| Cc1ccc(Nc2cc(C)nc3nc(SCc4nc5ccccc5[nH]4)nn23)cc1 | > 10 | 22.9 | 43.1 | 35.1 | 36.9 | – | – | – | – | – | – | – | – | – | – | – | – |

| SMILES | IC50 [1] [µM] | inhibition of growth at 10 µM (MGC-803 [2]) [%] | inhibition of growth at 10 µM (ECa-109 cell line [3]) [%] | inhibition of growth at 10 µM (A549 [4]) [%] | inhibition of growth at 10 µM (PC-9 [5]) [%] | Ratio IC50 (PC-9 [6]) | IC50 (MGC-803 [7]) [µM] | IC50 (ECa-109 cell line [8]) [µM] | IC50 (A549 [9]) [µM] | IC50 (PC-9 [10]) [µM] | inhibition at 10 µM (MGC-803 [11]) [%] | Activity (MGC-803 [12]) | Activity (MGC-803 [13]) | Activity (MGC-803 [14]) | Activity (PC-9 [15]) | Activity (PC-9 [16]) | Activity (PC-9 [17]) |
| --- | --- | --- | --- | --- | --- | --- | --- | --- | --- | --- | --- | --- | --- | --- | --- | --- | --- |
| Cc1cc(N2CCC(N3CCCCC3)CC2)n2nc(SCc3ccccc3)nc2n1 | > 10 | 32.8 | 0.3 | 56.5 | 35.6 | – | – | – | 8.87 | – | – | – | – | – | – | – | – |
| O=C(O)c1ccc(CN2CCC(CN[C@@H]3C[C@H]3c3ccccc3)CC2)cc1 [GSK2879552] | 0.024 | – | – | – | – | – | > 50 | > 50 | – | – | – | – | – | – | – | – | – |
| Cc1cc(Nc2ccccc2)n2nc(SCc3ccccc3)nc2n1 | > 10 | 35 | 12.9 | 50.2 | 40.2 | – | – | – | 16.4 | – | – | – | – | – | – | – | – |
| Cc1cc(Nc2ccc(F)cc2)n2nc(SCc3ccccc3)nc2n1 | > 10 | 19.7 | 37.6 | 41.8 | 43.5 | – | – | – | – | – | – | – | – | – | – | – | – |
| Cc1cc(Nc2ccc(C(=O)O)cc2)n2nc(SCc3ccccc3)nc2n1 | > 10 | 26.7 | 14.3 | 34.6 | 30.7 | – | – | – | – | – | – | – | – | – | – | – | – |
| Cc1cc(NCCCN2CCOCC2)n2nc(SCc3ccccc3)nc2n1 | > 10 | 24.9 | 9.3 | 49.2 | 51.9 | – | – | – | 17 | 15 | – | – | – | – | – | – | – |
| COc1cc(Nc2cc(C)nc3nc(SCc4nc5ccccc5[nH]4)nn23)cc(OC)c1OC | > 10 | 28 | 34.1 | 52.4 | 42.9 | – | – | – | 18 | – | – | – | – | – | – | – | – |
| Cc1cc(Nc2cccc3c2CN(C2CCC(=O)NC2=O)C3=O)n2nc(SCc3nc4ccccc4[nH]3)nc2n1 (stereo not drawn) | > 10 | 11.4 | 32.2 | 48.2 | 52.4 | – | – | – | 19.8 | 15 | – | – | – | – | – | – | – |
| CCC1(c2ccc(Nc3cc(C)nc4nc(SCc5nc6ccccc6[nH]5)nn34)cc2)CCC(=O)NC1=O (stereo not drawn) | > 10 | 1.1 | 38.2 | 49.2 | 47.9 | – | – | – | 17.5 | 12.2 | – | – | – | – | – | – | – |
| Cc1cc(Nc2ccc(F)cc2)n2nc(SCc3nc4ccccc4[nH]3)nc2n1 | > 10 | 19.2 | 39.7 | 36.6 | 27.6 | – | – | – | – | – | – | – | – | – | – | – | – |
| Cc1cc(OCCN2CCCC2)n2nc(SCc3ccccc3)nc2n1 | > 10 | 28.8 | 11.4 | 49.8 | 43.6 | – | – | – | 22.8 | – | – | – | – | – | – | – | – |
| Cc1cc(N)n2nc(SCc3ccccc3)nc2n1 | > 10 | 32.3 | 4.7 | 57.3 | 48.3 | – | – | – | 9.74 | 8.14 | – | – | – | – | – | – | – |
| Cc1cc(Nc2ccc(Cl)cc2)n2nc(SCc3nc4ccccc4[nH]3)nc2n1 | > 10 | 16.8 | 41.2 | 34.9 | 33.2 | – | – | – | – | – | – | – | – | – | – | – | – |
| O=c1[nH]cc(F)c(=O)[nH]1 [FLUOROURACIL] | – | – | – | – | – | – | 10.1 | 26 | 14 | 1.99 | – | – | – | – | – | – | – |
| Cc1cc(Nc2ccc(C(=O)O)cc2)n2nc(SCc3nc4ccccc4[nH]3)nc2n1 | > 10 | 0.4 | 4.5 | 5.6 | 11.9 | – | – | – | – | – | – | – | – | – | – | – | – |
| Cc1cc(Nc2ccccc2)n2nc(SCc3nc4ccccc4[nH]3)nc2n1 | > 10 | 17.9 | 39.9 | 38 | 31.6 | – | – | – | – | – | – | – | – | – | – | – | – |

Source: ChEMBL document CHEMBL4041507, “Design, synthesis and biological evaluation of [1,2,4]triazolo[1,5-a]pyrimidines as potent lysine specific demethylase 1 (LSD1/KDM1A) inhibitors” (Eur J Med Chem, 2017)
